Assay results: US20230100789A1, “Method for activating AMPK and the use of Adenine” (Energenesis Biomedical Co., Ltd., priority 2013, published 2023)

Legend:
LC3 = experiment: Autophagy assay in Neuro2A cells (LC3-II/LC3-I western blot); type: cell-based, mouse; conditions: 24 h
Experimental: Amyloid β peptide and autophagy assay Effects of adenine on Amyloid β peptide were analyzed in mouse neuroblastoma cell Neuro2A. Neuro2A cells were cultured in high-glucose Dulbecco's modified Eagle's medium (DMEM) containing 10% fetal bovine serum (FBS), 4 mM L-glutamine, 2 mM sodium pyruvate and 1% penicillin/streptomycin (Invitrogen GibcoBRL, Carlsbad, Calif., USA) at 37° C. under 5% CO2. Cells were plated at 3×10^5 per well (6-well plate). 24 h after plating, cells were transfected with human APP695 and treated with indicated concentration of adenine for 24 h followed by cell lysis and western blot analysis. Equal amounts of protein were separated by SDS-PAGE and then electroblotted on to PVDF membranes. Membranes were blocked with 3% BSA in PBS for 60 min and incubated with an anti-Aβ antibody (1:1,000, abcam), an anti-LC3 antibody (1:1,000, Cell signaling), and an anti-actin antibody (1:5,000, Cell signaling) at 4° C. overnight followed by the corresponding secondary antibody for 1 h at room temperature (RT). Immunoreactive bands were detected by enhanced chemiluminescence (ECL; Pierce, Rockford, Ill., USA) and recorded using Kodakfilm (Rochester, N.Y., USA). The detected signals were scanned and then quantified by using TotalLab Quant software (TotalLab).
Because the conversion of LC3-I to LC3-II is indicative of autophagy activity, the higher LC3-II/LC3-I ratio in adenine treated cells reflects the ability of adenine to induce autophagy activity.

[1] = test system: 6-mm full-thickness excisional skin wounds; experiment: Excisional skin wound healing and scar formation in mice; type: in vivo, C57BL/6J mice
Experimental: C57BL/6J mice were maintained at 22° C. under a 12-h light/dark cycle. The experiments were performed with 12-weeks old mice. After anesthetized by an intraperitoneal injection of ketamine (500 mg/kg) and xylazine (100 mg/kg), 6-mm full-thickness excisional skin wounds was made on the backs of mice using 6-mm skin biopsy punches. Immediately after wounding, 10-1200 M of adenine in 25 l saline or saline alone was applied to the wound bed. The skin wounds were then covered by semipermeable transparent dressing and fixed to the skin. The mice were treated with adenine or vehicle for 14 days and then sacrificed. The scar formation is assessed by Masson's trichrome staining to observe the fibrosis process and the collagen framework of the healed wound (Fixed by 4% paraformaldehyde).

high-fat diet-fed mice = experiment: Anti-diabetic effects in high-fat diet-fed mice (type 2 diabetes model); type: in vivo, C57BL/6J mice; conditions: IP 0.1 to 50 mg/kg twice a day for 6 days
Experimental: To further evaluate the effects of adenine on the modulation of plasma glucose level, the high-fat diet-fed mice were served as a type 2 diabetes animal model. C57BL/6J mice were maintained at 22° C. under a 12-h light/dark cycle and fed either a high fat diet (60% kcal % fat) or a normal diet ad libitum. Intraperitoneal injections of adenine (0.1 to 50 mg/kg) or vehicle were given to the high-fat diet-fed mice from the age of 24 weeks and glucose readings were measure at 1 and 3 hr. IP administration of adenine or vehicle only to the high-fat diet-fed mice continued twice a day for 6 days. On day 6, plasma was collected 1 hr after the last dosing for analyzing, evaluating, measuring plasma glucose and triglycerides.

Aβ infusion mice = experiment: Aβ-induced Alzheimer's disease model mice, Morris water maze; type: in vivo, C57BL/6J mice; conditions: daily IP 0.01, 0.1, 5 or 30 mg/kg for 4 weeks
Experimental: Aβ25-35 was purchased from Sigma-Aldrich (St. Louis, Mo.). The peptides were dissolved in distilled saline and aggregated by incubation at 37° C. for 7 days before injection. C57BL/6J mice were maintained at 22° C. under a 12-h light/dark cycle. Adult mice were anesthetized by ketamine (500 mg/kg) and xylazine (100 mg/kg) and placed in a stereotaxic frame (Stoelting, Wood Dale, Ill., USA). 5 nmol of the aggregated A1325-35 were injected into the lateral ventricle using a 10-μ1 Hamilton syringe (Hamilton Company, Reno, Nev., USA). The target anterior-posterior (AP), medial-lateral (ML) and dorsoventral coordinates were −0.5 mm, ±1 mm and −2.5 mm relative to the bregma. To evaluate the effect of adenine on neurodegenerative disease, Aβ infusion mice were daily intraperitoneally injected with 0.01, 0.1, 5 or 30 mg/kg bodyweight of adenine or vehicle for 4 weeks. The cognitive functions of these mice were analyzed by using Morris water maze assay after 4 weeks injection. The water maze was performed in a circular pool filled with water and a platform was submerged below the water's surface in the target quadrant for hidden platform test. […] Mice were allowed to swim in the maze for 60 s and recorded by a video camera. The latency to find the platform and swim paths were analyzed by EthoVision software (Version 3.1, Noldus, The Netherlands).

IL-1β = experiment: LPS-induced inflammatory response in THP1 macrophage, secreted IL-1β (ELISA); type: cell-based, human; conditions: THP1 macrophages, 50 ng LPS 6 hr
Experimental: (§1) Effects of adenine on inflammatory response were evaluated in human THP1 macrophage by examining protein level of intracellular COX-2 and secreted TNFα, IL-1β and IL-6. Differentiation of THP1 monocytes into macrophages was induced by 50 nM PMA for 24 hr. THP1 macrophages were further stimulated by 50 ng LPS for 6 hr in the presence of 10-600 μM of adenine or vehicle followed by cell lysis and western blot analysis. Equal amounts of protein were separated by SDS-PAGE and then electroblotted on to PVDF membranes. Membranes were blocked with 3% BSA in PBS for 60 min and incubated with an anti-COX-2 antibody (1:1,000, Cell signaling), an anti-actin antibody (1:5,000, Cell signaling) at 4° C. overnight followed by the corresponding secondary antibody for 1 h at room temperature (RT). Immunoreactive bands were detected by enhanced chemiluminescence (ECL; Pierce, Rockford, Ill., USA) and recorded using Kodak film (Rochester, N.Y., USA). The detected signals were scanned and then quantified using TotalLab Quant software (TotalLab). The secreted TNFα, IL-1β and IL-6 were analyzed by enzyme-linked immunosorbent assays.

TNFα = experiment: LPS-induced inflammatory response in THP1 macrophage, secreted TNFα (ELISA); type: cell-based, human; conditions: THP1 macrophages, 50 ng LPS 6 hr
Experimental: as §1

3T3 cells = experiment: Fibroblast proliferation assay (trypan blue cell counting); type: cell-based, Human; conditions: 72 h, mean±SEM
Experimental: Human fibro blast cell line 3T3 were cultured in high-glucose Dulbecco's modified Eagle's medium (DMEM) containing 10% fetal bovine serum (FBS), 4 mM L-glutamine, 2 mM sodium pyruvate and 1% penicillin/streptomycin (Invitrogen GibcoBRL, Carlsbad, Calif., USA) at 37° C. under 5% CO2. For cell proliferation assay, 3T3 cells were plated at 1×10^5 per well (6-well plate). 24 h after plating, cells were treated with indicated concentration of adenine for 72 h and the number of viable cells was counted. Cells were detached using trypsin-EDTA solution and stained with trypan blue. The living cells were counted using hemocytometer. […] Data are presented as the mean±SEM of three independent experiments.

Nc1ncnc2nc[nH]c12 [Adenine, adenine]
LC3-II/LC3-Iratio (relative to control) (LC3; adenine 10 microM): 1.2 ± 0.1 relative to control | LC3-II/LC3-Iratio (relative to control) (LC3; adenine 20 microM): 1.8 ± 0.3 relative to control | LC3-II/LC3-Iratio (relative to control) (LC3; adenine 30 microM): 2.8 ± 0.2 relative to control | LC3-II/LC3-Iratio (relative to control) (LC3; adenine 40 microM): 2.9 ± 0.2 relative to control | LC3-II/LC3-Iratio (relative to control) (LC3; adenine 50 microM): 3.2 ± 0.3 relative to control | scar width ([1]; topical adenine, 14 days post-wounding, vs vehicle treated wounds): significantly decreased the scar width | extent of wound closure ([1]; topical, 10-1200 µM of adenine in 25 µl saline, 14 days of treatment, dose-dependent, vs control mice): significantly greater | lower body weight compare to the control group (high-fat diet-fed mice): more than 15% | lower plasma glucose compare to the control group (high-fat diet-fed mice; plasma 1 hr after last dosing): > 30% | lower plasma triacylglycerides compare to the control group (high-fat diet-fed mice; plasma 1 hr after last dosing): more than 35% | lower plasma glucose compare to the control group (high-fat diet-fed mice; plasma 1 hr after last dosing, listed as adenine): more than 30% | percentage time in target quadrant, probe assay (Aβ infusion mice): higher percentage time in target quadrant | time to find platform, hidden platform test (Aβ infusion mice; dose-dependent): significantly shorter time to find platform | IL-1β•(% to control) (IL-1β; adenine 10 microM): 91 ± 8.4 % to control | IL-1β•(% to control) (IL-1β; adenine 100 microM): 29 ± 5.5 % to control | IL-1β•(% to control) (IL-1β; adenine 600 microM): 17 ± 3.7 % to control | TNF•(% to control) (TNFα; adenine 10 microM): 85 ± 9.1 % to control | TNF•(% to control) (TNFα; adenine 100 microM): 41 ± 2.6 % to control | TNF•(% to control) (TNFα; adenine 600 microM): 23 ± 1.8 % to control | Cell number (% to control) (3T3 cells; adenine 10 microM): 91 ± 2.7 % to control | Cell number (% to control) (3T3 cells; adenine 50 microM): 73 ± 8.1 % to control | Cell number (% to control) (3T3 cells; adenine 100 microM): 64 ± 5.3 % to control | Cell number (% to control) (3T3 cells; adenine 200 microM): 48 ± 2.8 % to control | Cell number (% to control) (3T3 cells; adenine 500 microM): 33 ± 6.4 % to control | Cell number (% to control) (3T3 cells; adenine 1000 microM): 27 ± 11.3 % to control
